Legend:
FGFR3-K650E = target: T1, FGFR3-K650E (Homo sapiens, UniProt P22607, K650E); test: in cellulo FGFR3 phosphorylation in HEK 293 VNR cells transfected with FGFR3-K650E (immunoprecipitation, western blot); assay type: cell-based
T1 construct: expressed in transfected cells; host or cells: HEK 293 VNR cells

FGFR3 WT = FGFR3 WT (Homo sapiens, UniProt P22607); test: in vitro inhibition of FGFR3 (WT); assay type: biochemical
FGFR3 WT, sequence (P22607 23-806): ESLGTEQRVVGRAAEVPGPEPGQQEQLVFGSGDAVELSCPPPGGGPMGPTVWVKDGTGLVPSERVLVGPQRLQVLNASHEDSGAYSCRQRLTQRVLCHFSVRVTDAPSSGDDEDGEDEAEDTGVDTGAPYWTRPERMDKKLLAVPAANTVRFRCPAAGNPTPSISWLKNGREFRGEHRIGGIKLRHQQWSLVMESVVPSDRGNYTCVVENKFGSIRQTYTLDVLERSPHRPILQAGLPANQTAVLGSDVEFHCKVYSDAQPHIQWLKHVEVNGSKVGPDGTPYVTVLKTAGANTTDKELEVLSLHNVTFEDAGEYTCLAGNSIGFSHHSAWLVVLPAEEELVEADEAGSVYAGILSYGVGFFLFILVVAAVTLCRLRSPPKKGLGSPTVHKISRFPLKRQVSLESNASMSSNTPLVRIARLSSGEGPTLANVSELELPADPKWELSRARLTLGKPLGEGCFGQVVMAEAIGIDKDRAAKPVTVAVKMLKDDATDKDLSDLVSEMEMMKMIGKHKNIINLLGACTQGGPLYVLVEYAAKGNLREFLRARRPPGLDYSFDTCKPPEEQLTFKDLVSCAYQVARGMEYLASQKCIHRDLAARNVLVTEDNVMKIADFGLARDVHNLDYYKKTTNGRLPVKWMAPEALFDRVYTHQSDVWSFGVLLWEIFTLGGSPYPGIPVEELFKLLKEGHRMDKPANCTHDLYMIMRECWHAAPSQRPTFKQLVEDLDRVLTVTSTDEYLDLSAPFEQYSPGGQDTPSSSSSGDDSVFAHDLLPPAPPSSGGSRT

T1 sequence (P22607 23-806 K650E): as the sequence (P22607 23-806) above, with K628E counted along it

## COC(=O)c1c(NC(C)=O)c(-c2noc(-c3ccc(Br)cc3)n2)nn1-c1cccc(OC)c1 [Cpd 24, Methyl 4-acetamido-3-(5-(4-bromophenyl)-1,2,4-oxadiazol-3-yl)-1-(3-methoxyphenyl)-1H-pyrazole-5-carboxylate]
FGFR3-K650E
  IC50: 0.15 µM
other
  melting point: 224 °C

## COC(=O)c1c(NC(C)=O)c(-c2noc(-c3ccc([N+](=O)[O-])cc3)n2)nn1-c1cccc(OC)c1 [Cpd 25]
FGFR3-K650E; HEK293, @ 500 nM, K650E
  inhibition at 0.5 µM: 0%

## COC(=O)c1c(NC(C)=O)c(-c2noc(-c3ccc(N(C)C)cc3)n2)nn1-c1cccc(OC)c1 [Cpd 27, Methyl 4-acetamido-3-(5-(4-(dimethylamino)phenyl)-1,2,4-oxadiazol-3-yl)-1-(3-methoxyphenyl)-1H-pyrazole-5-carboxylate]
other
  melting point: 196 °C

## COC(=O)c1c(NC(C)=O)c(-c2noc(-c3ccc([N+](=O)[O-])cc3)n2)nn1-c1cccc(-c2cn(Cc3ccccc3)nn2)c1 [Cpd 64]
FGFR3 WT; no qualifier printed (column % in vitro inhibition)
  IC50: 2 µM

## CC(=O)Nc1c(-c2noc(-c3ccc([N+](=O)[O-])cc3)n2)nn(-c2cccc(-c3cn(Cc4ccccc4)nn3)c2)c1C(=O)NCc1ccccc1 [Cpd 79]
FGFR3 WT
  inhibition at 10 µM: 21%
  inhibition at 50 µM: 97%

## COC(=O)c1c(NC(C)=O)c(-c2noc(-c3ccccc3)n2)nn1-c1cccc(OC)c1 [Cpd 134, Methyl 4-acetamido-1-(3-methoxyphenyl)-3-(5-phenyl-1,2,4-oxadiazol-3-yl)-1H-pyrazole-5-carboxylate]
other
  melting point: 186 to 188 °C

## COC(=O)c1c(NC(C)=O)c(-c2noc(-c3ccc([N+](=O)[O-])cc3)n2)nn1-c1cccc(OC)c1 [Example 2, Methyl 4-acetamido-1-(3-methoxyphenyl)-3-(5-(4-nitrophenyl)-1,2,4-oxadiazol-3-yl)-1H-pyrazole-5-carboxylate]
other
  melting point: 248 °C

Source: patent publication US20180237424A1, “FGFR3 ANTAGONISTS” (INSERM (INSTITUT NATIONAL DE LA SANTE ET DE LA RECHERCHE …, priority 2015, published 2018)
